Paper PMC12495412, “Coumarin/nitrogen-bearing heterocyclic hybrid-loaded electrospun PMMA/PVP nanofibrous scaffolds for accelerating topical wound healing rates: synthesis and in vitro bio-evaluation” (RSC Advances, 2025)
Converted amounts (≈) assume the structure as drawn. Marks after values point to notes of the source that are not given here. One block for each compound: values may come before it.

How the values were obtained:
Wi-38 cells = experiment: MTT cytotoxicity assay, normal cells; format: cell-based; settings: 48 h
Source text: (§1) MTT assay: the normal cell line (Wi-38), colon cancer (Caco-2), lung cancer (A549), and breast cancer (MDA) cell lines were sourced from ATCC, USA. All different cell lines were cultivated and preserved in DMEM medium (SERANA, Germany), accompanied by 10% FBS (Gibco, USA) and 1% Pen/Strep solution (Lonza, USA). The newly prepared derivatives at various doses were considered for their anticancer activity and their safety on normal cells, applying MTT (3-[4, 5-dimethylthiazol]-2, 5-diphenyltetrazolium bromide) methods.[22] At first, all normal and cancer cell lines (1.0 ×10^4) were inoculated in 4 antiseptic 96-well tissue culture microplates and incubated for 24 h in a CO2 incubator. After cell attachments, the prepared derivatives were added to both normal Wi-38 cells at diverse concentrations of (6.25–200 μg mL^−1, 2-fold) and cancer cells at different concentrations of (3.125–100 μg mL^−1, 2-fold) in triplicate and incubated for another 48 h at 37 °C in a CO2 incubator with an adjusted concentration of 5%. After that, the treated cells were cleaned three times with PBS to remove debris and dead cells. Next, 200 μL of 0.5 mg mL^−1 MTT dye solution in PBS was mixed in each well, and the cells were further kept for 3 h at 37 °C in a 5% CO2 incubator. After that, MTT was removed and 200 μL of DMSO was added to each well. The optical density (OD) was recorded at 570 nm via a microplate reader (B.M.G. LabTech, Germany). Basic cells (untreated) were utilized as negative control cells, and 5-fluorouracil (5-FU) was included as a standard chemotherapy drug. The qualified cell viability (%) was evaluated as in equation (eqn (1)):1 Relative cell viability (%) = […] A1 is the OD of the examined derivative, A0 is the OD of the standard, and AU is the OD of the untreated cells.
(§2) Anticancer activity assay: the anticancer effect of each derivative was assessed by evaluating the half-maximal inhibitory concentration (IC50) value via the GraphPad Prism 7.0 software. However, SI (selective index) values of each derivative were estimated by splitting the IC50 value of healthy cells by the IC50 value of malignant cells, as previously reported.[23] The effects of the created derivatives on the morphology of MDA cells were evaluated at IC50 doses and captured by phase-contrast microscopy (Olympus, Germany) in comparison to untreated control cells.

Caco-2 cells = experiment: MTT anticancer assay; format: cell-based; settings: for SI Caco-2: IC50 Wi-38 / IC50 Caco-2
Source text: as §1, §2

A549 cells [1] = experiment: MTT anticancer assay; format: cell-based, human; settings: 48 h
Source text: as §1, §2

MDA cells = experiment: MTT anticancer assay; format: cell-based, human; settings: 48 h
Source text: as §1, §2

A549 cells [2] = experiment: Wound healing scratch (anti-migration) assay; format: cell-based, human; settings: IC50 doses, 48 h
Experimental: To assess the anti-migration inhibition capability of newly synthesized derivatives, a wound healing technique was employed. A549 cells were planted in 12-well plates and kept alive at 37 °C until they achieved 80–90% fluency. The cell monolayers were smashed with a sterile tip and exposed to the prepared derivatives at IC50 doses. At 0 and 48 h of treatment, the wound closure area was captured and calculated by imaging analysis with the Cell-Sens software (Olympus, Japan).

all applied pathogens = experiment: Agar-well diffusion of synthesized compounds, whole panel; format: cell-based
Source text: The antimicrobial activity of the prepared compounds was estimated through an agar-well diffusion method as adapted from the modified Kirby–Bauer protocol.[24] In this test, microbial pathogens were applied, including Staphylococcus aureus ATCC 25923 (S. aureus), Streptococcus mutans ATCC 25175 (S. mutans), Bacillus cereus ATCC 19637 (B. cereus), Bacillus aureus ATCC 25923 (B. aureus), Bacillus epidermidis ATCC 14990 (B. epidermidis), and Bacillus subtilis ATCC 11774 (B. subtilis) as Gram-positive bacteria, and Pseudomonas aeruginosa ATCC 27853 (P. aeruginosa), Klebsiella pneumonia ATCC 13883 (K. pneumonia), and Salmonella typhimurium ATCC 14028 (S. typhimurium), Salmonella pneumoniae ATCC 10031(S. pneumoniae), Escherichia coli ATCC 10536 (E. coli), and Salmonella paratyphi ATCC 9150 (S. paratyphi) as Gram-negative bacteria. Additionally, Candida albicans (ATCC 10231), Candida krusei ATCC 6258 (C. krusei), Candida glabrata ATCC 66032 (C. glabrata), andCandida parapsilosis ATCC 22019 (C. parapsilosis) were applied as models of unicellular fungi. The pre-inoculation cultures of the pathogens were prepared on Muller–Hinton broth and cultivated for 24 h at 37 °C. The agar-well test was prepared on Muller–Hinton agar with 100 μL of each pathogen pre-culture (0.5 McFarland conc.) and uniformly distributed on the plate surface. Under aseptic conditions, six wells were created on the agar surface using a sterile corkborer (9 mm). To each well, 100 μL of the prepared compound (10 mg mL^−1) was separately inserted into each plate. All plates were incubated for 24 h at 37 °C; the established inhibition zones (Halo-zones) surrounding the wells indicated positive antimicrobial activity and were stated as the radius of the inhibition zone (mm).

Bacillus cereus [3] = experiment: Agar-well diffusion of formulations; format: cell-based; settings: 50 μL per 5 mm well, 37 °C
Experimental: (§3) The antimicrobial qualities of formulations were evaluated in this study using a variety of techniques. The formulations including 8 PMMA and 2 PVP, which contained varying doses of drug A (0.5% = T1, 1% = T2, 3% = T3, and 5% = T4) or drug B (0.5% = T5, 1% = T6, 3% = T7, and 5% = T8), as well as a combination of 2.5% of drug A and 2.5% of drug B (T9) were assessed. The tested human pathogens were cultivated in a nutritional broth medium containing 0.5% peptone, 0.3% yeast extract, 0.2% beef extract, 0.1% glucose, and 0.5% NaCl in accordance with 0.5 McFarland turbidity criteria.[25] To carry out the agar-well diffusion analysis, microbial cultures (100 μL) were spread on nutrient agar plates using sterile cotton swabs. After drilling each well with a sterile cork-borer of 5 mm in diameter, 50 μL of the tested formulations and the control (composed of 8 PMMA and 2 PVP) were loaded. Agar plates were thereafter left to incubate at 37 °C for an entire day. The inhibitory zone that surrounds each well was measured in millimeters (mm) using a ruler.[26]

Bacillus subtilis [4] = experiment: Agar-well diffusion of formulations; format: cell-based; settings: 50 μL per 5 mm well, 37 °C
Experimental: as §3

Candida albicans [5] = experiment: Agar-well diffusion of formulations; format: cell-based; settings: 50 μL per 5 mm well, 37 °C
Experimental: as §3

Candida glabrata [6] = experiment: Agar-well diffusion of formulations; format: cell-based; settings: 50 μL per 5 mm well, 37 °C
Experimental: as §3

Candida krusei [7] = experiment: Agar-well diffusion of formulations; format: cell-based; settings: 50 μL per 5 mm well, 37 °C
Experimental: as §3

Candida parapsilosis [8] = experiment: Agar-well diffusion of formulations; format: cell-based; settings: 50 μL per 5 mm well, 37 °C
Experimental: as §3

Escherichia coli [9] = experiment: Agar-well diffusion of formulations; format: cell-based; settings: 50 μL per 5 mm well, 37 °C
Experimental: as §3

Klebsiella pneumoniae [10] = experiment: Agar-well diffusion of formulations; format: cell-based; settings: 50 μL per 5 mm well, 37 °C
Experimental: as §3

Pseudomonas aeruginosa [11] = experiment: Agar-well diffusion of formulations; format: cell-based; settings: 50 μL per 5 mm well, 37 °C
Experimental: as §3

Salmonella paratyphi [12] = experiment: Agar-well diffusion of formulations; format: cell-based; settings: 50 μL per 5 mm well, 37 °C
Experimental: as §3

Staphylococcus aureus [13] = experiment: Agar-well diffusion of formulations; format: cell-based; settings: 50 μL per 5 mm well, 37 °C
Experimental: as §3

[14] = test system: Staphylococcus epidermidis; experiment: Agar-well diffusion of formulations; format: cell-based; settings: 50 μL per 5 mm well, 37 °C
Experimental: as §3

[15] = test system: multidrug-resistant human pathogens; experiment: Agar-well diffusion of formulations, whole panel; format: cell-based; settings: all human pathogens investigated
Experimental: as §3

Bacillus cereus [16] = experiment: Biofilm inhibition test (spectrophotometric); format: cell-based; settings: 24 h, 37 °C, OD vs untreated
Experimental: (§4) Additionally, a spectrophotometric antibiofilm assay was utilized to determine whether the evaluated formulations might inhibit the growth of pathogens. Fresh nutritional broth was inoculated with each pathogen separately, and this mixture was then incubated at 37 °C at 200 rpm. The optical density (OD) at 600 nm was measured over a 6 h incubation period, allowing for an estimation of the starting microbe's exponential phase (3 × 10^7 CFU mL^−1). To produce treated cultures, 900 μL of planktonic cultures were collected aseptically with 100 μL of each formulation. Furthermore, untreated (formula-free) cultures of pathogens were grown as controls. The cultures were then incubated for 24 hours at 200 rpm and 37 °C. Through spectroscopic evaluation of microbial turbidity, the inhibitory effects of the examined formulations were determined.[27] By comparing the OD of the treated sample with the matching controls, anti-biofilm percentages for each formula were computed.[28]

Bacillus subtilis [17] = experiment: Biofilm inhibition test (spectrophotometric); format: cell-based; settings: 24 h, 37 °C, OD vs untreated
Experimental: as §4

Candida albicans [18] = experiment: Biofilm inhibition test (spectrophotometric); format: cell-based; settings: 24 h, 37 °C, OD vs untreated
Experimental: as §4

Candida glabrata [19] = experiment: Biofilm inhibition test (spectrophotometric); format: cell-based; settings: 24 h, 37 °C, OD vs untreated
Experimental: as §4

Candida krusei [20] = experiment: Biofilm inhibition test (spectrophotometric); format: cell-based; settings: 24 h, 37 °C, OD vs untreated
Experimental: as §4

Candida parapsilosis [21] = experiment: Biofilm inhibition test (spectrophotometric); format: cell-based; settings: 24 h, 37 °C, OD vs untreated
Experimental: as §4

Escherichia coli [22] = experiment: Biofilm inhibition test (spectrophotometric); format: cell-based; settings: 24 h, 37 °C, OD vs untreated
Experimental: as §4

Klebsiella pneumoniae [23] = experiment: Biofilm inhibition test (spectrophotometric); format: cell-based; settings: 24 h, 37 °C, OD vs untreated
Experimental: as §4

Pseudomonas aeruginosa [24] = experiment: Biofilm inhibition test (spectrophotometric); format: cell-based; settings: 24 h, 37 °C, OD vs untreated
Experimental: as §4

Salmonella paratyphi [25] = experiment: Biofilm inhibition test (spectrophotometric); format: cell-based; settings: 24 h, 37 °C, OD vs untreated
Experimental: as §4

Staphylococcus aureus [26] = experiment: Biofilm inhibition test (spectrophotometric); format: cell-based; settings: 24 h, 37 °C, OD vs untreated
Experimental: as §4

[27] = test system: Staphylococcus epidermidis; experiment: Biofilm inhibition test (spectrophotometric); format: cell-based; settings: 24 h, 37 °C, OD vs untreated
Experimental: as §4

SMILES: O=C(Nc1ccc(Nc2c3ccccc3nc3ccccc23)cc1)c1cc2ccccc2oc1=O [Compound B, N-(4-(acridin-9-ylamino)phenyl)-2-oxo-2H-chromene-3-carboxamide]
- IC50 (Wi-38 cells; WI-38, normal human lung fibroblast cells): 126 ± 10.9 µg/mL (≈ 276 µM)
- IC50 (Caco-2 cells; Homo sapiens, Caco-2, colon carcinoma cells, MTT, 48 h): 4.87 ± 1.69 µg/mL (≈ 10.6 µM)
- SI Caco-2 (Caco-2 cells): 25.93 ± 2.25
- IC50 (A549 cells [1]; Homo sapiens, A549, lung carcinoma cells): 6.98 ± 1.99 µg/mL (≈ 15.3 µM)
- IC50 (MDA cells; Homo sapiens, Breast carcinoma cell): 4.27 ± 0.46 µg/mL (≈ 9.33 µM)
- Migration inhibition (A549 cells [2]): 87.21%
- Antimicrobial activity (all applied pathogens): no antimicrobial activity

SMILES: O=C(Nc1ccc(Nc2c3ccccc3nc3ccccc23)cc1)c1cc2ccccc2oc1=O [Compound C3]
- Inhibition zone diameters (Bacillus cereus [3]): 0 mm
- Inhibition zone diameters (Bacillus subtilis [4]): 0 mm
- Inhibition zone diameters (Candida albicans [5]): 9.29 ± 1.25^fg mm
- Inhibition zone diameters (Candida glabrata [6]): 0 mm
- Inhibition zone diameters (Candida krusei [7]): 0 mm
- Inhibition zone diameters (Candida parapsilosis [8]): 7.25 ± 2.33^fg mm
- Inhibition zone diameters (Escherichia coli [9]): 0 mm
- Inhibition zone diameters (Klebsiella pneumoniae [10]): 0 mm
- Inhibition zone diameters (Pseudomonas aeruginosa [11]): 0 mm
- Inhibition zone diameters (Salmonella paratyphi [12]): 0 mm
- Inhibition zone diameters (Staphylococcus aureus [13]): 0 mm
- Inhibition zone diameters [14]: 0 mm
- Antimicrobial effect [15]: only has an impact on a few examined yeast infections
- Biofilm reduction (Bacillus cereus [16]): 23.36 ± 2.96^h %
- Biofilm reduction (Bacillus subtilis [17]): 37.29 ± 2.84^h %
- Biofilm reduction (Candida albicans [18]): 27.13 ± 3.96^h %
- Biofilm reduction (Candida glabrata [19]): 35.48 ± 2.58^h %
- Biofilm reduction (Candida krusei [20]): 29.91 ± 2.44^h %
- Biofilm reduction (Candida parapsilosis [21]): 25.79 ± 1.98^h %
- Biofilm reduction (Escherichia coli [22]): 20.93 ± 3.64^h %
- Biofilm reduction (Klebsiella pneumoniae [23]): 20.56 ± 2.65^h %
- Biofilm reduction (Pseudomonas aeruginosa [24]): 22.35 ± 2.58^h %
- Biofilm reduction (Salmonella paratyphi [25]): 22.55 ± 1.87^h %
- Biofilm reduction (Staphylococcus aureus [26]): 31.25 ± 2.98^h %
- Biofilm reduction [27]: 34.71 ± 1.56^h %

- SI Caco-2 (Caco-2 cells): 15.94 ± 1.39
- IC50 Caco-2 (Caco-2 cells; colon carcinoma cells, MTT, 48 h): 12.09 ± 1.42 µg/mL (≈ 37 µM)
- IC50 A549 (A549 cells [1]; lung carcinoma cells): 21.01 ± 2.05 µg/mL (≈ 64.4 µM)
- IC50 MDA (MDA cells; breast carcinoma cells): 13.98 ± 0.57 µg/mL (≈ 42.8 µM)
SMILES: Cc1ccc(-c2nnc(Nc3ccc(N)cc3)c3ccccc23)cc1 [Compound C1]
- IC50 Wi-38 (Wi-38 cells; normal human lung fibroblast cells): 192.7 ± 16.79 µg/mL (≈ 590 µM)
